Test results published in PubChem BioAssay (NCI).
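Compound exposure: 48 hours, 5 concentrations, 96-well plates. Here, GI50 denotes the concentration required for 50% inhibition of growth. Definition used: TGI = concentration required for complete inhibition of growth.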

Columns and labels:
Experiment in all cases: growth of human tumour cells (NCI), 48 h
[1] = system: K-562 leukemia
[2] = system: SF-539 CNS
[3] = system: HOP-92 NSCLC
[4] = system: SF-268 CNS
[5] = system: CAKI-1 renal
[6] = system: OVCAR-5 ovarian
[7] = system: HS 578T breast
[8] = system: SN12C renal
[9] = system: SW-620 colon
[10] = system: NCI-H23 lung
[11] = system: UACC-257 melanoma
[12] = system: SF-295 CNS
[13] = system: RPMI-8226 leukemia
[14] = system: UO-31 renal
[15] = system: SNB-19 CNS
[16] = system: ACHN renal
[17] = system: MALME-3M melanoma
[18] = system: PC-3 prostate
[19] = system: MCF7 breast
[20] = system: SK-MEL-5 melanoma
[21] = system: COLO 205 colon
[22] = system: HT29 colon
[23] = system: SR leukemia
[24] = system: SK-MEL-28 melanoma
[25] = system: 786-0 renal
[26] = system: A549 NSCLC
[27] = system: HCC-2998 colon
[28] = system: MDA-MB-231 breast
[29] = system: OVCAR-8 ovarian
[30] = system: CCRF-CEM leukemia
[31] = system: NCI/ADR-RES ovarian
[32] = system: EKVX NSCLC
[33] = system: T-47D breast
[34] = system: HCT-15 colon
[35] = system: U251 CNS
[36] = system: TK-10 renal
[37] = system: NCI-H226 lung
[38] = system: HL-60(TB) leukemia
[39] = system: NCI-H460 lung
[40] = system: OVCAR-3 ovarian
[41] = system: IGROV1 ovarian
[42] = system: DU-145 prostate
[43] = system: MDA-MB-435
[44] = system: M14 melanoma
[45] = system: SK-OV-3 ovarian
[46] = system: SK-MEL-2 melanoma
[47] = system: NCI-H522 lung
[48] = system: RXF 393 renal
[49] = system: KM12 colon
[50] = system: BT-549 breast
[51] = system: UACC-62 melanoma
[52] = system: MOLT-4 leukemia
[53] = system: SNB-75 CNS
[54] = system: OVCAR-4 ovarian
[55] = system: LOX IMVI melanoma
[56] = system: A498 renal
[57] = system: HOP-62 NSCLC

What does the source list for `CNCCn1c(=O)c2cc(OC)c(OC)cc2c2ccc3cc4c(cc3c21)OCO4`?
GI50 [1]: 55.2 nM; TGI [1]: 5190 nM; GI50 [2]: 133 nM; TGI [2]: 424 nM; GI50 [3]: 160 nM; TGI [3]: 2130 nM; GI50 [4]: 88.8 nM; TGI [4]: 5520 nM; GI50 [5]: 71.8 nM; TGI [5]: 588 nM; GI50 [6]: 195 nM; TGI [6]: 2600 nM; GI50 [7]: 835 nM; TGI [7]: 8390 nM; GI50 [8]: 173 nM; TGI [8]: 3970 nM; GI50 [9]: 57.2 nM; TGI [9]: 3090 nM; GI50 [10]: 112 nM; TGI [10]: 556 nM; GI50 [11]: 160 nM; TGI [11]: 854 nM; GI50 [12]: 34.6 nM; TGI [12]: 359 nM; GI50 [13]: 84.2 nM; TGI [13]: 376 nM; GI50 [14]: 123 nM; TGI [14]: 543 nM; GI50 [15]: 116 nM; TGI [15]: 5610 nM; GI50 [16]: 82.2 nM; TGI [16]: 368 nM; GI50 [17]: 172 nM; TGI [17]: 812 nM; GI50 [18]: 109 nM; TGI [18]: 6230 nM; GI50 [19]: 29.6 nM; TGI [19]: 4430 nM; GI50 [20]: 86.2 nM; TGI [20]: 199 nM; GI50 [21]: 75.3 nM; TGI [21]: 735 nM; GI50 [22]: 72 nM; TGI [22]: 1040 nM; GI50 [23]: 17.3 nM; TGI [23]: 972 nM; GI50 [24]: 555 nM; TGI [24]: 2690 nM; GI50 [25]: 109 nM; TGI [25]: 537 nM; GI50 [26]: 116 nM; TGI [26]: 638 nM; GI50 [27]: 167 nM; TGI [27]: 968 nM; GI50 [28]: 335 nM; TGI [28]: 3660 nM; GI50 [29]: 169 nM; TGI [29]: 6370 nM; GI50 [30]: 20.3 nM; TGI [30]: 952 nM; GI50 [31]: 217 nM; TGI [31]: 3190 nM; GI50 [32]: 266 nM; TGI [32]: 5010 nM; GI50 [33]: 83.8 nM; TGI [33]: 3430 nM; GI50 [34]: 175 nM; TGI [34]: 3060 nM; GI50 [35]: 49.5 nM; TGI [35]: 1190 nM; GI50 [36]: 513 nM; TGI [36]: 1560 nM; GI50 [37]: 192 nM; TGI [37]: 1030 nM; GI50 [38]: 173 nM; TGI [38]: 864 nM; GI50 [39]: 22.6 nM; TGI [39]: 558 nM; GI50 [40]: 162 nM; TGI [40]: 1250 nM; GI50 [41]: 142 nM; TGI [41]: 2290 nM; GI50 [42]: 122 nM; TGI [42]: 2510 nM; GI50 [43]: 131 nM; TGI [43]: 708 nM; GI50 [44]: 78.6 nM; TGI [44]: 399 nM; GI50 [45]: 157 nM; TGI [45]: 1320 nM; GI50 [46]: 533 nM; TGI [46]: 1530 nM; GI50 [47]: 54.8 nM; TGI [47]: 554 nM; GI50 [48]: 168 nM; TGI [48]: 727 nM; GI50 [49]: 219 nM; TGI [49]: 4980 nM; GI50 [50]: 263 nM; TGI [50]: 4370 nM; GI50 [51]: 46.5 nM; TGI [51]: 145 nM; GI50 [52]: 22.7 nM; TGI [52]: 211 nM; GI50 [53]: 127 nM; TGI [53]: 5530 nM; GI50 [54]: 175 nM; TGI [54]: 4260 nM; GI50 [55]: 57.7 nM; TGI [55]: 173 nM; GI50 [56]: 126 nM; TGI [56]: 609 nM; GI50 [57]: 70.5 nM; TGI [57]: 1080 nM
